Source: patent publication US20220409617A1, “Drug Formulations and Methods of Treatment for Metabolic Disorders” (The Regents of the University of California, priority 2019, published 2022)

Experiment: Indirect calorimetry and food intake in metabolic cages
Type: in vivo, mouse
Experimental: To examine the effects of sphingolipid-like compound 893 on whole body metabolism, indirect calorimetry was performed. Male C57BL/6J mice were maintained on the SD or HFD for 10-12 weeks, acclimated to metabolic cages that mimic the home environment, and then treated with vehicle or 120 mg/kg sphingolipid-like compound 893 by gavage at ZT8.5. […] As expected, RER values were lower during both light and dark cycles and diurnal fluctuations in substrate utilization were blunted in HFD-fed mice relative to SD controls (FIGS. 29 & 30). […] Consistent with the pharmacokinetic properties of sphingolipid-like compound 893 (see FIG. 12), RER returned to control values 24 h after sphingolipid-like compound 893 treatment (FIGS. 28 & 29). Animals were similarly responsive to a second treatment with sphingolipid-like compound 893 given 48 h after the first.
Metabolic parameters were measured using the Phenomaster system (TSE Systems Inc., Chesterfield, Mo.). The climate chamber was set to 21° C. and 50% humidity with a 12:12 h light-dark cycle. Mice were singly housed inside the chamber and acclimated for 48 h prior to data collection. VO2, VCO2, and food intake was measured every 27 min. Respiratory exchange ratio (RER) was calculated using the formula RER=VCO2/VO2. Energy expenditure was calculated using the equation EE=1.44(3.941×VO2+1.106×VCO2). In the indirect calorimetry studies in FIGS. 12 to 14, C57BL/6J mice were maintained on the HFD or SD for 10-12 weeks prior to evaluation and were naïve to therapy. Mice were serially evaluated in cohorts of 4 vehicle- and 4 sphingolipid-like compound 893-treated mice using 8 metabolic cages. Treatment was by gavage at ZT8.5, sphingolipid-like compound 893 was administered at 120 mg/kg in water. To evaluate the effect of morning treatment, vehicle or 120 mg/kg sphingolipid-like compound 893 was administered at ZT2 to 18 week old C57BL/6J males on a standard diet. Liquid diet experiments were also performed on 18 week old C57BL/6J males; mice were treated with sphingolipid-like compound 893 at ZT8.5 and food access was restricted at ZT11. Liquid feed (AIN-76, BioServ, Flemington, N.J.) was prepared at 1000 kcal/L in milli-Q water and at ZT12, mice were gavaged with 400 μL (0.4 kcal) of diet, corresponding to approximately 3 h of ad libitum consumption of standard chow. For the pair feeding study, RER was monitored over 12 h in mice maintained on the HFD for 22 weeks (31 weeks of age); pair-fed mice were used after a 48 h wash-out period and provided with the average amount of food they ate over 24 h after sphingolipid-like compound 893 treatment (92.5 mg or 0.4 kcal).
During measurements of one SD cohort (4 vehicle- and 4 sphingolipid-like compound 893-treated mice), a leak in the reference CO2 system was detected, the O2 and CO2 data was censored until the leak was corrected (70-74 h). Feeding and activity measurements were not compromised and were still analyzed. Occasionally, uneaten food was found on the floor of the cage precluding use of the hopper sensor to accurately monitor food intake. In these instances, food intake data was censored for the prior 24 h period (days 2 and 3 for mouse 8 (SD+sphingolipid-like compound 893) and mouse 8 (SD+vehicle), and day 3 for mouse 8 (HFD+sphingolipid-like compound 893) and mouse 1 (HFD+vehicle)). […] In rare cases, inadvertent pharyngeal administration of gavage material occurred. These mice were not euthanized, but food intake, calorimetry, and activity data from these animals was excluded from the analysis for 1 week after this event (mouse 2 (HFD+sphingolipid-like compound 893) after the second treatment on day 3 and mouse 5 (HFD+sphingolipid-like compound 893) after the first dose on day 1).

[1] = mice on SD or HFD 10-12 weeks, 120 mg/kg p.o. at ZT8.5

For `CCCCCCCCc1ccc([C@H]2CCN[C@@H]2CO)cc1.Cl` [compound 893], the “Food intake and RER, morning dosing” value (120 mg/kg at ZT2, mice on standard diet) was “still decreased both food intake and RER”, the “Activity (XY beam breaks)” value (120 mg/kg p.o. at ZT8.5) was “trend towards reduced activity” and the “Energy expenditure (Weir formula)” value (120 mg/kg p.o. at ZT8.5) was “not significantly affected”. The “Time after treatment at which RER returned to control values” (120 mg/kg p.o. at ZT8.5) was 24 h, the “Food intake and body weight loss, HFD for 22 weeks” value (mice on HFD 22 weeks, 120 mg/kg once at ZT8.5) was “the suppression of food intake and body weight loss appeared to increase” and the “Food intake in metabolic caging” value [1] was “reduced food intake”. The “Respiratory exchange ratio (RER)” value [1] was “reduced the RER in both HFD- and SD-fed mice”.
